Activity calls are given as the source filed them. The calls are words filed in the database; no cut-off is given here.
What was measured:
Mus musculus [1] = experiment: Neuroprotective activity against Eif 2bS R191H […] mouse model assessed as reduction in Eif4ebp1 level in brain at 50 mg/kg, po administered for 2 days; format: functional, organism-based; conditions: time 2.0 day
Mus musculus [2] = experiment: Neuroprotective activity against Eif 2bS R191H […] mouse model assessed as reduction in Chac1 level in brain at 50 mg/kg, po administered for 2 days; format: functional, organism-based; conditions: time 2.0 day
Mus musculus [3] = experiment: Neuroprotective activity against Eif 2bS R191H […] mouse model assessed as reduction in Ddit3 level in brain at 50 mg/kg, po administered for 2 days; format: functional, organism-based; conditions: time 2.0 day
[4] = Volume of distribution at steady state in cynomolgus monkey at 0.5 mg/kg, iv; format: ADME, organism-based, Macaca fascicularis; conditions: in vivo, read-out: Vdss
[5] = Volume of distribution at steady state in dog at 0.5 mg/kg, iv; format: ADME, organism-based, Canis lupus familiaris; conditions: in vivo, read-out: Vdss
[6] = Half life in rat at 1 mg/kg, iv; format: ADME, organism-based; conditions: in vivo
[7] = Oral bioavailability in rat at 3 mg/kg; format: ADME, organism-based; conditions: in vivo
[8] = Metabolic stability in rat liver microsome assessed as hepatic clearance; format: ADME; conditions: liver microsomes
Mus musculus [9] = experiment: Neuroprotective activity against Eif 2bS R191H […] mouse model assessed as reduction in Sensn2 level in brain at 50 mg/kg, po administered for 2 days; format: functional, organism-based; conditions: time 2.0 day
[10] = Ratio of unbound drug concentration in rat brain to plasma at 3 mg/kg, po; format: ADME, organism-based
[11] = Half life in rat at 1 mg/kg, iv by LC-MS/MS analysis; format: ADME, organism-based; conditions: in vivo
H4 = experiment: Neuroprotective activity against NaAsO2-induced human H4 cells expressing GFP TDP43 (86 to 414 residues) assessed as decrease in TDP43 accumulation incubated for 2 hrs by DAPI staining based microscopic analysis; format: functional, cell-based; conditions: H4, 2 h
[12] = Clearance in cynomolgus monkey at 0.5 mg/kg, iv; format: ADME, organism-based, Macaca fascicularis; conditions: in vivo
[13] = Volume of distribution at steady state in rat at 1 mg/kg, iv; format: ADME, organism-based; conditions: in vivo, read-out: Vdss
[14] = Clearance in rat at 1 mg/kg, iv; format: ADME, organism-based; conditions: in vivo
[15] = Clearance in dog at 0.5 mg/kg, iv; format: ADME, organism-based, Canis lupus familiaris; conditions: in vivo
[16] = Oral bioavailability in dog at 1 mg/kg; format: ADME, organism-based, Canis lupus familiaris; conditions: in vivo
Mus musculus [17] = experiment: Neuroprotective activity against Eif 2bS R191H […] mouse model assessed as reduction in ppp1r15a level in brain at 50 mg/kg, po administered for 2 days; format: functional, organism-based; conditions: time 2.0 day
Mus musculus [18] = experiment: Neuroprotective activity against Eif 2bS R191H […] mouse model assessed as reduction in Sic7a11 level in brain at 50 mg/kg, po administered for 2 days; format: functional, organism-based; conditions: time 2.0 day
Mus musculus [19] = experiment: Neuroprotective activity against Eif 2bS R191H […] mouse model assessed as reduction in Sic7a5 level in brain at 50 mg/kg, po administered for 2 days; format: functional, organism-based; conditions: time 2.0 day
Mus musculus [20] = experiment: Neuroprotective activity against Eif 2bS R191H […] mouse model assessed as reduction in Atf4 level in brain at 50 mg/kg, po administered for 2 days; format: functional, organism-based; conditions: time 2.0 day
[21] = target: T1, Nuclear receptor subfamily 1 group I member 2 (Homo sapiens, UniProt O75469); experiment: Activation of PXR (unknown origin)
T1 sequence (O75469 whole entry): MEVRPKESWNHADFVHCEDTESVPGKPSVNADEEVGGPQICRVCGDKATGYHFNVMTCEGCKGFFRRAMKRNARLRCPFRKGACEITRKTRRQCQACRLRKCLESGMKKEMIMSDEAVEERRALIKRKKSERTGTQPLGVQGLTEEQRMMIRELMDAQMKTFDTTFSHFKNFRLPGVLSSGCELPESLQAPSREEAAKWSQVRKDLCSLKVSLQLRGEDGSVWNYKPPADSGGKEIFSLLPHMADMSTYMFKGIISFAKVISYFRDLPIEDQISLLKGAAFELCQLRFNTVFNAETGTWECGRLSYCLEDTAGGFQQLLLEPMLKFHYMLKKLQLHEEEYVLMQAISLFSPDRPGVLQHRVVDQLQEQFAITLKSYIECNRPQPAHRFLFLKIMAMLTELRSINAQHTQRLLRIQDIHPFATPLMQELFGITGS

[22] = target: T2, Aryl hydrocarbon receptor (Homo sapiens, UniProt P35869); experiment: Activation of AHR (unknown origin)
T2 sequence (P35869 whole entry): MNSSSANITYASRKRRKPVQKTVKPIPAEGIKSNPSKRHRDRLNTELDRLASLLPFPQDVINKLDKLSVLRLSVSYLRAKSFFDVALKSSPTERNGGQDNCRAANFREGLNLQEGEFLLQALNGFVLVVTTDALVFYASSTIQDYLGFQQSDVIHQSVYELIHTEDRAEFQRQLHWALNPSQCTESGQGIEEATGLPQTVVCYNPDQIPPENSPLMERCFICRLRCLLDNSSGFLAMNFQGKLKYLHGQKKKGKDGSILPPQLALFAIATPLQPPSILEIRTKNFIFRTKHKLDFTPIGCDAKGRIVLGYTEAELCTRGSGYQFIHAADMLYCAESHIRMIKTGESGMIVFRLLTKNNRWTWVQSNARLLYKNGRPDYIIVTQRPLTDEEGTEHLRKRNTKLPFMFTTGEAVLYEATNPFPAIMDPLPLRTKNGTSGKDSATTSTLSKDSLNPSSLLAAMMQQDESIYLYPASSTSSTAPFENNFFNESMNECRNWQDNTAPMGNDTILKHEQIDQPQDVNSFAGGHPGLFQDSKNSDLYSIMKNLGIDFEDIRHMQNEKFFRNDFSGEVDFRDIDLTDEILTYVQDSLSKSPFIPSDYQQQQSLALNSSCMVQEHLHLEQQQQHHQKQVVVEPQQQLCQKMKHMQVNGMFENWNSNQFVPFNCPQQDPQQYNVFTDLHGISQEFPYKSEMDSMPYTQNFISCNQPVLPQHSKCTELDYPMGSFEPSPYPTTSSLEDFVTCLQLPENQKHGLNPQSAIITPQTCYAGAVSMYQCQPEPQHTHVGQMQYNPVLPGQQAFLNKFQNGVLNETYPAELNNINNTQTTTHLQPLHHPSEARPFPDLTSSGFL

[23] = Clearance in rat at 1 mg/kg, iv by LC-MS/MS analysis; format: ADME, organism-based; conditions: in vivo
[24] = Ratio of unbound drug concentration in cynomolgus monkey brain to plasma at 0.5 mg/kg, po measured after 6 hrs; format: ADME, organism-based, Macaca fascicularis
Mus musculus [25] = experiment: Neuroprotective activity against Eif 2bS R191H […] mouse model assessed as reduction in trib3 level in brain at 50 mg/kg, po administered for 2 days; format: functional, organism-based; conditions: time 2.0 day
[26] = Volume of distribution at steady state in rat at 1 mg/kg, iv by LC-MS/MS analysis; format: ADME, organism-based; conditions: in vivo, read-out: Vdss
[27] = Metabolic stability in human liver microsome assessed as hepatic clearance; format: ADME; conditions: liver microsomes
[28] = Oral bioavailability in cynomolgus monkey at 1 mg/kg; format: ADME, organism-based, Macaca fascicularis; conditions: in vivo
Mus musculus [29] = experiment: Neuroprotective activity against Eif 2bS R191H […] mouse model assessed as reduction in mthfd2 level in brain at 50 mg/kg, po administered for 2 days; format: functional, organism-based; conditions: time 2.0 day
Mus musculus [30] = experiment: Neuroprotective activity against Eif 2bS R191H […] mouse model assessed as reduction in Atf3 level in brain at 50 mg/kg, po administered for 2 days; format: functional, organism-based; conditions: time 2.0 day

O=C(COc1ccc(Cl)cc1)NC12CC(c3nnc([C@H]4C[C@@H](OC(F)(F)F)C4)o3)(C1)C2 [EVETIFATOR]
Activity (Mus musculus [1]): Active | Activity (Mus musculus [2]): Active | Activity (Mus musculus [3]): Active | Vd [4]: 1.9 L/kg | Vd [5]: 2.7 L/kg | half-life [6]: 750 min | bioavailability [7]: 56% | CLhep predicted [8]: < 17 mL/min/kg | Activity (Mus musculus [9]): Active | K(p,uu,brain) [10]: 0.8 | half-life [11]: 750 min | IC50 (H4): 12.5 nM | clearance [12]: 2.9 mL/min/kg | Vd [13]: 0.31 L/kg | clearance [14]: 0.4 mL/min/kg | clearance [15]: 4.8 mL/min/kg | bioavailability [16]: > 99% | Activity (Mus musculus [17]): Active | Activity (Mus musculus [18]): Active | Activity (Mus musculus [19]): Active | Activity (Mus musculus [20]): Active | Activity [21]: Not Active | Activity [22]: Not Active | clearance [23]: 0.4 mL/min/kg | K(p,uu,brain) [24]: 0.9 | Activity (Mus musculus [25]): Active | Vd [26]: 0.31 L/kg | CLhep predicted [27]: < 6 mL/min/kg | bioavailability [28]: > 99% | Activity (Mus musculus [29]): Active | Activity (Mus musculus [30]): Active
